# Data from patent US20050257279A1, “Agouti-related protein deficient cells, non-human transgenic animals and methods of selecting compounds which regulate energy metabolism” (priority 2002, published 2005).
# Entries after “also recorded” stand apart in the source; their conditions may differ.
# Tests used:
# [1] = system: primary cultures of rat anterior pituitary cells; assay: Rat pituitary growth hormone (GH) release; format: cell-based; details: 15 min incubation
# Procedure: Rat Pituitary Growth Hormone (GH) Release: Compound functional activity was evaluated by measuring growth hormone secretion from primary cultures of rat anterior pituitary cells (Small, et al., (1998) Regulatory Peptides 75-76 and 301-307). Cells were isolated from rat pituitaries by enzymatic digestion with 250 μg/mL DNAse 1 and 0.5% trypsin in Hanks' balanced salt solution. The cells were suspended in culture medium and adjusted to a concentration of 1.5×10^5 cells/ml and 1.0 ml of this suspension was placed in each well of a 24-well tray. Cells were maintained in a humidified 5% CO2/95% air atmosphere at 37° C. for 3-4 days. The culture medium consisted of DMEM containing 0.37% NaHCO3, 10% horse serum, 2.5% fetal bovine serum, 1% nonessential amino acids, 1% glutamine, 1% nystatin, and 0.1% gentamicin. Before testing compounds for their capacity to […] GH release, cells were washed twice 1.5 hr before and once more immediately before the start of the experiment with the above culture medium containing 25 mM Hepes (pH 7.4). Compounds were tested in quadruplicate by adding them in 1 ml of fresh medium to each well and incubating them at 37° C. for 15 minutes followed by centrifugation at 2000×g for 15 min to remove any cellular material. The supernatant fluid was assayed for GH by a double antibody radioimmunoassay.
# [2] = 4-hour light-phase food intake in mice; format: in vivo; details: human ghrelin 3 μmole/kg i.p.
# From the text: Mice were individually housed at approximately one month of age. Regular mouse chow (Teklad 7012: 5.67% kcal from fat; 3.41 kcal/g, Harlan Teklad) was provided as pellet food in wire cage tops containing food hoppers.
# Food intake values were reported as means ± standard errors of the means, and analyzed by the two tailed, unpaired Student t test. P values of <0.05 were reported as significant.
smiles,measurement,setting,value
CCCCCCCC(=O)OC[C@H](NC(=O)[C@H](CO)NC(=O)CN)C(=O)N[C@@H](Cc1ccccc1)C(=O)N[C@@H](CC(C)C)C(=O)N[C@@H](CO)C(=O)N1CCC[C@H]1C(=O)N[C@@H](CCC(=O)O)C(=O)N[C@@H](Cc1c[nH]cn1)C(=O)N[C@@H](CCC(N)=O)C(=O)N[C@@H](CCCNC(=N)N)C(=O)N[C@H](C(=O)N[C@@H](CCC(N)=O)C(=O)N[C@@H](CCC(N)=O)C(=O)N[C@@H](CCCNC(=N)N)C(=O)N[C@@H](CCCCN)C(=O)N[C@@H](CCC(=O)O)C(=O)N[C@@H](CO)C(=O)N[C@@H](CCCCN)C(=O)N[C@@H](CCCCN)C(=O)N1CCC[C@H]1C(=O)N1CCC[C@H]1C(=O)N[C@@H](C)C(=O)N[C@@H](CCCCN)C(=O)N[C@@H](CC(C)C)C(=O)N[C@@H](CCC(N)=O)C(=O)N1CCC[C@H]1C(=O)N[C@@H](CCCNC(=N)N)C(=O)O)C(C)C [Ghrelin],EC50,[1],0.7 nM
same,effect on 4-hour food intake,"[2]; Agrp-/-, Npy-/- double knockout mice",no effect; also recorded: without effect
same,stimulation of 4-hour food intake,"[2]; wild-type control mice, ad libitum fed, relative to saline",120%
same,effect on 4-hour food intake,"[2]; wild-type mice, relative to saline",stimulated 4-hour food intake
